One experiment relates to BEAS-2B cells. The experiment can be described thus: In vitro transfection, Metridia luciferase assay in BEAS-2B cells. The class given is cell-based, human. On the procedure: (§1) Preparation of IVT-mRNA/pDNA containing binary and ternary complexes: Stock solutions of P704 (5 mg/ml) and synthetic compound (1 mg/ml) were prepared in nuclease-free water (NF water) and stored at 4° C. P704 based binary complexes (P704/IVT-mRNA or P704/pDNA) were prepared by mixing equal volumes of diluted P704 stock solution with IVT-mRNA or pDNA solution at the desired concentration in 2× Tyrode's solution. Ternary complexes were generated via two-steps incubation. Briefly, P704 solutions at certain concentration (defined as weight/weight (w/w) ratio between P704 and nucleic acids) in NF-water were mixed with equal volume of synthetic compound solution at specific concentration (defined as N/P ratio, namely the […] between nitrogen residues in synthetic compound and nucleic acids phosphate groups). After 20 min incubation at room temperature (RT), same volumes of nucleic acid (IVT-mRNA or pDNA) solution in NF-water were added to the above P704/synthetic compound solution and mixed gently by pipetting up and down several times. Subsequently, complexes were incubated for another 20 min at RT prior to further use. IVT-mRNA or pDNA solutions in NF-water were complexed with brPEI (25 kDa) at an optimum N/P ratio, the resulting complexes were served as a control polyplex. As for control lipoplex, Lipofectamine® 2000 complexes were prepared according to the manufacturer's instructions using optimum concentration. In order to prepare DOTAP/DOPE liposomes, a lipid film was formed by removing the chloroform solvent in DOTAP/DOPE mixture solution under nitrogen atmosphere. The lipid film is hydrated with NF-water to make the final concentration 10 mM DOTAP/DOPE. The DOTAP/DOPE liposome formulation was formed by mixing 250 μl of pDNA encoding for firefly luciferase and cystic fibrosis transmembrane conductance regulator (fLUC-CFTR pDNA) (150 μg) containing solution and 250 μl diluted DOTAP/DOPE solution (190 μl of 10 mM DOTAP/DOPE liposome and 60 μl NF-water). The mix solution was incubated at RT for 20 min prior to further use.
(§2) In vitro transfection: For the luciferase assay, cells were seeded at a density of 1.8×10^4/well (BEAS-2B) or 3.5×10^4/well (16HBE) in 96-well plates 24 h before transfection to reach 60-80% confluence. Following removal of growth medium, cells were rinsed with DPBS (Gibco, Germany). 170 μl of fresh serum-free OptiMEM (Gibco, Germany) were added per well, and subsequently 30 μl of IVT-mRNA or pDNA containing complexes prepared, as described above, corresponding to 400 ng IVT-mRNA or pDNA per well, were added in replicates of five. After 4 h of incubation at 37° C. in a humidified 5% CO2-containing atmosphere, the transfection medium was replaced with culture medium supplemented with 10% FBS and 1% (v/v) penicillin/streptomycin. Luciferase activity in 50 μl supernatants from transfected cells was assayed with Metridia luciferase substrate (coelenterazine, Invivogen, France) after 24 h using a FLUOstar microplate reader (BMG Labtech, Germany) and its activity is expressed in relative light units (RLU). In all cases each sample was measured on at least two other occasions to ensure the reproducibility of the data.
The same transfection procedure as described above was applied. Luciferase activity was expressed in RLU. The data are given as the mean±standard deviation (SD) of the mean (n>5) in FIGS. 12a to 12k.
(§3) The concentration of P704 in ternary complexes for treatment of BEAS-2B cells was 50 (w/w) and the concentration of P704 in ternary complexes for treatment of 16HBE cells was 63 (w/w). The N/P ratios of the compounds in ternary complexes were as follows:
BEAS-2B cells: Compound 0 (DL) at 30, compound 1 at 20, compounds 3 and 11 at 15, compounds 4 and 6 at 10, compounds 2 and 9 at 5, compounds 5, 7, 8 and 10 at 2.5.
The same transfection procedure as described above was applied. Luciferase activity was expressed in RLU. […]

Another experiment concerns 16HBE cells. Nature of the experiment: In vitro transfection, Metridia luciferase assay in 16HBE cells. Type of experiment: cell-based, human. On the procedure: as §1
as §2, with “data. […]” for “data.”
as §3
16HBE cells: Compound 0 (DL) at 20, compounds 1 and 11 at 15, compounds 2 and 3 at 10, compounds 4, 6, 8, and 9 at 5, compounds 5, 7, and 10 at 2.5.
The same transfection procedure as described above was applied.
The concentration of P704 in ternary complexes was 63 (w/w). The N/P ratio of the compounds in certain ternary complexes was as follows:
16HBE cells: Compound 1, 8, and 11 at 20; compound 0 (DL) and 3 at 10; compound 2 at 7.5; compounds 4, 6, 9, and 10 at 5, compounds 5 and 7 at 2.5. […]

The test system of the next experiment is airway epithelium cells. The experiment can be described thus: In vitro transfection study on cultured airway epithelium cells (luciferase, RLU/mg cellular protein). Type of experiment: cell-based. The following applies: ternary complexes formed by P704, a nucleic acid and the compound. On the procedure: as §2, with “Luciferase activity in 50 μl supernatants from transfected cells was” left out, “[…]).” for “Germany) and its activity is expressed in relative light units (RLU).”

The star is where a group is joined. ξ: configuration not given here. Lipoyl(6ξ) = O=C(CCCCC1CCSS1)*

Consider “NH2-VKRKKKPKKRRRRKKWK(DL-lipoic acid)-CONH2 (H-VKRKKKPKKRRRRKKWK(Lipoyl(6ξ))-NH2; SMILES CC(C)[C@H](N)C(=O)N[C@@H](CCCCN)C(=O)N[C@@H](CCCNC(=N)N)C(=O)N[C@@H](CCCCN)C(=O)N[C@@H](CCCCN)C(=O)N[C@@H](CCCCN)C(=O)N1CCC[C@H]1C(=O)N[C@@H](CCCCN)C(=O)N[C@@H](CCCCN)C(=O)N[C@@H](CCCNC(=N)N)C(=O)N[C@@H](CCCNC(=N)N)C(=O)N[C@@H](CCCNC(=N)N)C(=O)N[C@@H](CCCNC(=N)N)C(=O)N[C@@H](CCCCN)C(=O)N[C@@H](CCCCN)C(=O)N[C@@H](Cc1c[nH]c2ccccc12)C(=O)N[C@@H](CCCCNC(=O)CCCCC1CCSS1)C(N)=O) [compound 0 (DL)]”, for which the “pDNA expression relative to compound 3 containing ternary complex” value with BEAS-2B cells (MetLuc pDNA, FIG. 14a) was ~5 times. For the same substance, in the experiment with 16HBE cells (other days than day 2), the “pDNA expression compared with compound 3 containing ternary complex” value is recorded as “significantly higher”. Further, in the experiment with airway epithelium cells, the “transfection efficiencies of ternary complexes with compound 0 (DL) versus compound 0 (R)” value is given as “similar”.

Take “KETWWETWWTEWWTEW-KKKKRRRRRKKKK-GACSERSMNFCG (KETWWETWWTEWWTEWKKKKRRRRRKKKKGACSERSMNFCG) [compound 9]”: the “IVT-mRNA transfection efficiency of P704 ternary complex (in words)” value with BEAS-2B cells (MetLuc mRNA, P704 63 (w/w), optimum N/P, FIG. 17a) is “more superior to other counterparts”; with 16HBE cells (MetLuc mRNA, P704 63 (w/w), optimum N/P, FIG. 17b), “more superior to other counterparts”. Moreover, the “pDNA transfection efficiency of P704 ternary complex (in words)” value with BEAS-2B cells (MetLuc pDNA, P704 50 (w/w), optimum N/P, FIG. 14a) is given as “highest transfection efficiency”; in the experiment on 16HBE cells (MetLuc pDNA, P704 63 (w/w), optimum N/P, FIG. 14b), “overwhelming signals”.

(Values after patent US11077205B2, “Synthetic compound for improving efficiency of transfection” (Klinikum der Universität München, priority 2016, dated 2021).)
